The record followed here is ChEMBL document CHEMBL5325451, “Structurally Diverse Triterpene-26-oic Acids as Potential Dual ACL and ACC1 Inhibitors from the Vulnerable Conifer Keteleeria fortunei” (J Nat Prod, 2023).

Assay [1] addresses T1, ATP-citrate synthase (Homo sapiens, UniProt P53396).
T1 sequence (P53396 whole entry): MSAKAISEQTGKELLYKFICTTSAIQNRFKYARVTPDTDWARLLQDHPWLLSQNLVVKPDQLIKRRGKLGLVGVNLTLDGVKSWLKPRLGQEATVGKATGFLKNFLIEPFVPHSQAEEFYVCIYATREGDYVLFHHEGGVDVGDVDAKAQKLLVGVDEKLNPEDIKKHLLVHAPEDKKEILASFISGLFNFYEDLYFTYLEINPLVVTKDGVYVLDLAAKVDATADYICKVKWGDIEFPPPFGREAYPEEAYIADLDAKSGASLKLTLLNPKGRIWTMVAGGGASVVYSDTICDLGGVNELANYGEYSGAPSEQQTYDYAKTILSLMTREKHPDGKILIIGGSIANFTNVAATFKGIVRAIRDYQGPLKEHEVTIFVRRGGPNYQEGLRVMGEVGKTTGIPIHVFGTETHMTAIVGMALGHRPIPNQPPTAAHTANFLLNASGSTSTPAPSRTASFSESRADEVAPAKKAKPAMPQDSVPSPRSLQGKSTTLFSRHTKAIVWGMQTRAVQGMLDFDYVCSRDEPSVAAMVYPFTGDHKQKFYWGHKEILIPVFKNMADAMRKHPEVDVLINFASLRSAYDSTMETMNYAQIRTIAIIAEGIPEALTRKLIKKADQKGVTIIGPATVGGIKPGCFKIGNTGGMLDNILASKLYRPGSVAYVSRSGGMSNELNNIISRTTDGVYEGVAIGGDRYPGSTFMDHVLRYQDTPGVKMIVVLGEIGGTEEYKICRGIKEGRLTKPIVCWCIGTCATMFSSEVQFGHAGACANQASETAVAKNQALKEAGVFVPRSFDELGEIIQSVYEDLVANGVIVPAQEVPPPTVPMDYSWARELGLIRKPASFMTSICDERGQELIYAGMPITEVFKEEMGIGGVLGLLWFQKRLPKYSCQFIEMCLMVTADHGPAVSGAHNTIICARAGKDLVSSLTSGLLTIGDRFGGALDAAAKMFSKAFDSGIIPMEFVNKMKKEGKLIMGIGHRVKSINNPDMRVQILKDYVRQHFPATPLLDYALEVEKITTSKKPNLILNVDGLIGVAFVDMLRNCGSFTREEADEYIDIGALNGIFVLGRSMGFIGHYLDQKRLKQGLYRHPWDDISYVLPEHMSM
As to the kind of experiment: Inhibition of ACL (unknown origin) incubated for 30 mins in presence of ATP by ADP-Glo kinase assay. A general note: ADP-Glo first removes unused ATP, then detects ADP through luciferase.

Assay [2] concerns the target Acetyl-CoA carboxylase 1 (Homo sapiens, UniProt Q13085). As to the kind of experiment: Inhibition of ACC1 (unknown origin) preincubated for 30 mins followed by ATP addition measured for 60 mins by ADP-Glo luminescence assay.
The target of assay [3] is T1, ATP-citrate synthase. As to the kind of experiment: Inhibition of ACL (unknown origin).

In the case of `C[C@H](CC/C=C(\CO)C(=O)O)[C@H]1CC[C@@]2(C)[C@@H]3CC[C@H]4C(C)(C)[C@H](O)CC[C@@]45C[C@@]35CC[C@]12C`, the IC50 (as a rule, the concentration at which inhibition is half-maximal) in assay [1] amounted to 11.4 µM; in assay [2] it was 8.4 µM.
For `C[C@H](Cc1cc(C(=O)O)co1)[C@]1(C)CC[C@]2(C)C1=CC[C@@]13C[C@@]14CC[C@@H](O)C(C)(C)[C@@H]4CC[C@H]32`, in that order: 6.6 µM and 7.5 µM.
On to `COc1ccc(-c2ccccc2)cc1NS(=O)(=O)c1cc(Cl)cc(Cl)c1O`, for which, in assay [3], the IC50 amounted to 500 nM.
Take `C[C@H](Cc1cc(C(=O)O)co1)[C@H]1CC[C@@]2(C)C3=CC[C@H]4C(C)(C)[C@H](O)CC[C@]4(C)[C@@H]3CC[C@]12C`: the figures for the IC50 in assay [1] and in assay [2] were 8.8 µM and 8.9 µM, respectively.
In the case of `C/C(=C\CC[C@@H](C)[C@H]1CC[C@@]2(C)[C@@H]3CC[C@H]4C(C)(C)[C@H](O)CC[C@@]45C[C@@]35CC[C@]12C)C(=O)O` [ISOMANGIFEROLIC ACID], the IC50 in assay [1] came to 7.6 µM; in assay [2], 10.5 µM.
Consider `CC(=O)O[C@@H]1CC[C@]2(C)[C@@H]3CC[C@]4(C)C(=CC[C@@]4(C)[C@H](C)Cc4cc(C(=O)O)co4)C3=CC[C@H]2C1(C)C`, for which the IC50 in assay [1] amounted to 5.7 µM; in assay [2] it was 10.2 µM.
